This is an account of results in patent US20170121344A1 (Siga Technologies, Inc., priority 2009, published 2017).

The subject of the first assay is Dengue-2 (Strain New Guinea C). Description: Viral yield assay against Dengue-2 in Vero cells. In kind it is cell-based, Dengue virus. The following applies: Dengue virus, Vero, 48 h, read-out: Activity (EC50 class) against Dengue-2 Virus in Vero cells. Summed up: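 Yield reduction, Vero; MOI 0.1; compound vs DMSO; 37° C; harvest 48 h p.i.; titer on Vero; EC50 fitted. Other serotypes run the same way.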
A word on the EC50: it is the concentration needed to bring the measured effect to its halfway point. As to `COCc1cc(C)nc2sc(C(=O)Nc3ccc(C(=O)OC)cc3)c(N)c12` [Compound 239, 4-[(3-Amino-4-methoxymethyl-6-methyl-thieno[2,3-b]pyridine-2-carbonyl)-amino]-benzoic acid methyl ester], the half-maximal effective concentration (EC50) is more than 25 µM. For the compound `COc1ccc(NC(=O)c2sc3nc(N4CCOCC4)c4c(c3c2N)CC(C)(C)OC4)cc1` [Compound 244, 1-Amino-8,8-dimethyl-5-morpholin-4-yl-8,9-dihydro-6H-7-oxa-3-thia-4-aza-cyclopenta[a]naphthalene-2-carboxylic acid (4-methoxy-phenyl)-amide], the half-maximal effective concentration (EC50) is more than 25 µM. Turning to `CC1(C)Cc2nc3sc(C(=O)NCCCO)c(N)c3cc2CS1` [Compound 253, 3-Amino-7,7-dimethyl-7,8-dihydro-5H-1,6-dithia-9-aza-cyclopenta[b]naphthalene-2-carboxylic acid (3-hydroxy-propyl)-amide], the EC50 was more than 25 µM.

Consider `Cc1cc(C)c2c(N)c(C(=O)NCCc3ccccc3)sc2n1` [Compound 257, 3-Amino-4,6-dimethyl-thieno[2,3-b]pyridine-2-carboxylic acid phenethyl-amide], for which the EC50 is more than 25 µM. On to `Cc1cc(C)c2c(N)c(C(=O)NCc3ccco3)sc2n1` [Compound 258, 3-Amino-4,6-dimethyl-thieno[2,3-b]pyridine-2-carboxylic acid (furan-2-ylmethyl)-amide], for which the concentration giving a half-maximal response (EC50) was more than 25 µM. With `Cc1cc(C)c2c(N)c(C(=O)NCc3ccccc3)sc2n1` [Compound 260, 3-Amino-4,6-dimethyl-thieno[2,3-b]pyridine-2-carboxylic acid benzylamide], the concentration giving a half-maximal response (EC50) is more than 25 µM. In the case of `COc1ccc(CNC(=O)c2sc3nc4c(c(C(F)(F)F)c3c2N)CN(C(C)=O)CC4)cc1` [Compound 262, 6-Acetyl-3-amino-4-trifluoromethyl-5,6,7,8-tetrahydro-thieno[2,3-b][1,6]naphthyridine-2-carboxylic acid 4-methoxy-benzylamide], the concentration for a half-maximal effect (EC50) is more than 25 µM. In the case of `CCN(CC)C(=O)c1sc2nc3c(cc2c1N)CN(C(C)C)CC3` [Compound 271, 3-Amino-6-isopropyl-5,6,7,8-tetrahydro-thieno[2,3-b][1,6]naphthyridine-2-carboxylic acid diethylamide], the EC50 was more than 25 µM.

The assay is the same for the next values; noted with them: Dengue virus; Vero cells, MOI 0.1, harvested 48 hours post infection; read-out: Activity (EC50 class) against Dengue-2 Virus in Vero cells.
Take `CCOC(=O)c1cc(NC(=O)c2sc3nc(C)cc(COC)c3c2N)ccc1Cl` [Compound 240, 5-[(3-Amino-4-methoxymethyl-6-methyl-thieno[2,3-b]pyridine-2-carbonyl)-amino]-2-chloro-benzoic acid ethyl ester]: the 50% effective concentration (EC50) was more than 25 µM.

With `CCOc1ccc(-c2c3c(nc4sc(C(=O)Nc5nccs5)c(N)c24)CCCC3)cc1` [Compound 241, 3-Amino-4-(4-ethoxy-phenyl)-5,6,7,8-tetrahydro-thieno[2,3-b]quinoline-2-carboxylic acid thiazol-2-ylamide], the concentration for a half-maximal effect (EC50) is more than 25 µM.

Regarding `COCc1cc(C)nc2sc(C(=O)Nc3cc(C)ccc3F)c(N)c12` [Compound 242, 3-Amino-4-methoxymethyl-6-methyl-thieno[2,3-b]pyridine-2-carboxylic acid (2-fluoro-5-methyl-phenyl)-amide], the EC50 is more than 25 µM. Regarding `COCc1cc(C)nc2sc(C(=O)Nc3ccc(N4CCOCC4)cc3)c(N)c12` [Compound 243, 3-Amino-4-methoxymethyl-6-methyl-thieno[2,3-b]pyridine-2-carboxylic acid (4-morpholin-4-yl-phenyl)-amide], the EC50 is more than 25 µM. Take `CC1(C)Cc2c(c(N3CCOCC3)nc3sc4c(=O)n(-c5ccc(Cl)c(Cl)c5)cnc4c23)CO1` [Compound 245, 9-(3,4-Dichloro-phenyl)-2,2-dimethyl-5-morpholin-4-yl-1,4-dihydro-2H,9H-3-oxa-7-thia-6,9,11-triaza-benzo[c]fluoren-8-one]: the 50% effective concentration (EC50) was more than 25 µM. Consider `CCCCN(CCCC)C(=O)c1sc2nc(N3CCOCC3)c3c(c2c1N)CC(C)(C)OC3` [Compound 246, 1-Amino-8,8-dimethyl-5-morpholin-4-yl-8,9-dihydro-6H-7-oxa-3-thia-4-aza-cyclopenta[a]naphthalene-2-carboxylic acid dibutylamide], for which the half-maximal effective concentration (EC50) was more than 25 µM. On to `COc1ccccc1NC(=O)c1sc2nc(N3CCOCC3)c3c(c2c1N)CC(C)(C)OC3` [Compound 247, 1-Amino-8,8-dimethyl-5-morpholin-4-yl-8,9-dihydro-6H-7-oxa-3-thia-4-aza-cyclopenta[a]naphthalene-2-carboxylic acid (2-methoxy-phenyl)-amide], for which the EC50 is more than 25 µM.

As to `CC1(C)Cc2c(c(N3CCOCC3)nc3sc4c(c23)N2C(=O)CCC2(C)NC4=O)CO1` (stereo not drawn) [Compound 248, 2,2,9a-Trimethyl-5-(4-morpholinyl)-1,4,9,9a,10,11-hexahydro-2H-pyrano[4″,3″:4′,5′]pyrido[3′,2′:4, 5]thieno[2,3-e]pyrrolo[1,2-a]pyrimidine-8,12-dione], the half-maximal effective concentration (EC50) was more than 25 µM. Regarding `COCc1cc(C)nc2sc(C(=O)N3CCc4ccccc43)c(N)c12` [Compound 249, (3-Amino-4-methoxymethyl-6-methyl-thieno[2,3-b]pyridin-2-yl)-(2,3-dihydro-indol-1-yl)-methanone], the 50% effective concentration (EC50) is more than 25 µM. Regarding `COCc1cc(C)nc2sc(C(=O)Nc3ccc4c(c3)OCO4)c(N)c12` [Compound 250, 3-Amino-4-methoxymethyl-6-methyl-thieno[2,3-b]pyridine-2-carboxylic acid benzo[1,3]dioxol-5-ylamide], the concentration for a half-maximal effect (EC50) is more than 25 µM. As for `CC1(C)Cc2nc3sc4c(=O)n(Cc5ccc(Cl)cc5Cl)cnc4c3cc2CO1` [Compound 252, 2-(2,4-Dichloro-benzyl)-8,8-dimethyl-8,9-dihydro-2H,6H-7-oxa-11-thia-2,4,10-triaza-benzo[b]fluoren-1-one], the half-maximal effective concentration (EC50) is more than 25 µM. In the case of `Nc1c(C(=O)Nc2ccccc2C(F)(F)F)sc2nc3c(cc12)CCCC3` [Compound 254, 3-Amino-5,6,7,8-tetrahydro-thieno[2,3-b]quinoline-2-carboxylic acid (2-trifluoromethyl-phenyl)-amide], the EC50 is more than 25 µM.

As to `Cc1cc(NC(=O)c2sc3nc(C)c(C)c(C)c3c2N)no1` [Compound 255, 3-Amino-4,5,6-trimethyl-thieno[2,3-b]pyridine-2-carboxylic acid (5-methyl-isoxazol-3-yl)-amide], the EC50 is more than 25 µM. Consider `CC(=O)c1cccc(NC(=O)c2sc3nc(C)cc(C)c3c2N)c1` [Compound 256, 3-Amino-4,6-dimethyl-thieno[2,3-b]pyridine-2-carboxylic acid (3-acetyl-phenyl)-amide], for which the concentration giving a half-maximal response (EC50) is more than 25 µM. Regarding `COc1ccc(C)cc1NC(=O)c1sc2nc(C)cc(C)c2c1N` [Compound 259, 3-Amino-4,6-dimethyl-thieno[2,3-b]pyridine-2-carboxylic acid (2-methoxy-5-methyl-phenyl)-amide], the EC50 was more than 25 µM. Turning to `CCC1(C)Cc2c(c(N3CCOCC3)nc3sc4c(=O)[nH]cnc4c23)CO1` (stereo not drawn) [Compound 261, 2-Ethyl-2-methyl-5-morpholin-4-yl-1,4-dihydro-2H,9H-3-oxa-7-thia-6,9,11-triaza-benzo[c]fluoren-8-one], the EC50 was more than 25 µM.

On to `COC(=O)c1cc(OC)c(OC)cc1NC(=O)c1sc2nc3c(cc2c1N)CN(C)CC3` [Compound 263, 2-[(3-Amino-6-methyl-5,6,7,8-tetrahydro-thieno[2,3-b][1,6]naphthyridine-2-carbonyl)-amino]-4,5-dimethoxy-benzoic acid methyl ester], for which the EC50 was more than 25 µM. Same read-out and setting: with `Cc1cc(NC(=O)c2sc3nc4c(cc3c2N)CN(C)CC4)on1` [Compound 264, 3-Amino-6-methyl-5,6,7,8-tetrahydro-thieno[2,3-b][1,6]naphthyridine-2-carboxylic acid (3-methyl-isoxazol-5-yl)-amide] the figure was more than 25 µM; with `Cc1cc(F)ccc1NC(=O)c1sc2nc3c(cc2c1N)CN(C)CC3` [Compound 265, 3-Amino-6-methyl-5,6,7,8-tetrahydro-thieno[2,3-b][1,6]naphthyridine-2-carboxylic acid (4-fluoro-2-methyl-phenyl)-amide], more than 25 µM. Consider `COc1ccc(CNC(=O)c2sc3nc4c(cc3c2N)CN(C)CC4)cc1` [Compound 266, 3-Amino-6-methyl-5,6,7,8-tetrahydro-thieno[2,3-b][1,6]naphthyridine-2-carboxylic acid 4-methoxy-benzylamide], for which the EC50 is more than 25 µM. In the case of `CN1CCc2nc3sc(C(=O)NCCc4ccccc4)c(N)c3cc2C1` [Compound 267, 3-Amino-6-methyl-5,6,7,8-tetrahydro-thieno[2,3-b][1,6]naphthyridine-2-carboxylic acid phenethyl-amide], the EC50 was more than 25 µM. With `CCc1nnc(NC(=O)c2sc3nc4c(cc3c2N)CN(C)CC4)s1` [Compound 268, 3-Amino-6-methyl-5,6,7,8-tetrahydro-thieno[2,3-b][1,6]naphthyridine-2-carboxylic acid (5-ethyl-[1,3,4]thiadiazol-2-yl)-amide], the EC50 was more than 25 µM. For the compound `CN1CCc2nc3sc(C(=O)NCc4ccc5c(c4)OCO5)c(N)c3cc2C1` [Compound 269, 3-Amino-6-methyl-5,6,7,8-tetrahydro-thieno[2,3-b][1,6]naphthyridine-2-carboxylic acid (benzo[1,3]dioxol-5-ylmethyl)-amide], the concentration for a half-maximal effect (EC50) is more than 25 µM.

On to `CC(C)NC(=O)c1sc2nc3c(cc2c1N)CN(C)CC3` [Compound 270, 3-Amino-6-methyl-5,6,7,8-tetrahydro-thieno[2,3-b][1,6]naphthyridine-2-carboxylic acid isopropylamide], for which the 50% effective concentration (EC50) is more than 25 µM. For the compound `CCc1nnc(NC(=O)c2sc3nc4c(cc3c2N)CN(C(C)C)CC4)s1` [Compound 272, 3-Amino-6-isopropyl-5,6,7,8-tetrahydro-thieno[2,3-b][1,6]naphthyridine-2-carboxylic acid (5-ethyl-[1,3,4]thiadiazol-2-yl)-amide], the EC50 is more than 25 µM.
